Data published in patent publication US20120165412A1, “Use of Resveratrol or Another Hydroxylated Stilbene For Preserving Cognitive Functioning” (N.V. Nutricia, priority 2009, published 2012).

Legend:
[1] = Survival, food intake, body weight and general health under chronic dietary supplementation; assay type: in vivo
Method: (§1) The experiment was performed with male C57BI/6 mice (Harlan, Horst, The Netherlands). Animals were individually housed under a 12 hours light/12 hours dark cycle with lights on at 8:00. Food and drinking water were provided ad libitum, except for the period of behavioural testing as described below. The experiment was started with 60 mice, half of which served as control (CON) and half of which received resveratrol in their food from the age of 1 year onwards (RES). Between the ages of 18 and 20 month, spatial learning performance of the animals was studied in a Y-maze test. At the age of 24 month, brains were collected and processed for immunocytochemistry to asses cholinergic parameters and electron microscopy for several cerebrovascular analyses. The procedures concerning animal care and treatment were in accordance with the regulations of the ethical committee for the use of experimental animals of the University of Groningen.
To rule out differences in food intake between animals on a control diet and resveratrol-supplemented diet, food intake and body weight were monitored every two weeks. To establish whether resveratrol provided in the food enters the circulation, a pilot experiment was performed in which blood was collected from mice by decapitation after 1 day and 30 days of supplementation. Plasma concentrations of resveratrol were measured. After 1 day of supplementation, resveratrol levels in the plasma were 88.5 μg/l at the end of the dark phase or active phase, when mice consume most of their food, and 41 μg/l at the end of the light phase or resting phase (n=3 each). After 1 month of supplementation, the levels were 102.7 and 30.7 μg/l at the end of active phase and rest phase, respectively (n=3 each). These measurements confirm that resveratrol ingested via the food indeed entered the circulation, and the levels appeared to fluctuate over the day in a fashion that paralleled food intake. Supplementation of resveratrol via food thus seemed an appropriate and simple method for further studies.
Animals received resveratrol in their food from 1 year of age onwards. […]

aged mice [2] = assay: Open field test (general explorative activity); assay type: in vivo, male C57BI/6 mice; settings: chronic supplementation
Method: as §1, with “The procedures concerning animal care and treatment were in accordance with the regulations of the ethical committee for the use of experimental animals of the University of Groningen.” left out
To examine general explorative activity, mice were subjected to an open-field test for 5 minutes. […] Position and locomotion of the mice was recorded and analyzed with a computerized video tracking system (Ethovision, Noldus Information Technology, Wageningen, The Netherlands). The number of visits and time spend in each of the two zones was determined. […]
(§2) Behavioural performance was statistically analyzed with a one way ANOVA paradigm for repeated measures. Immunocytochemical data and EM data were statistically analyzed with an independent samples T-test (2-tailed). Data are expressed as averages ±S.E.M. P<0.05 was considered as significant.

aged mice [3] = assay: Y-maze spatial learning test; assay type: in vivo, male C57BI/6 mice
Method: as §1
To examine cognitive performance, the mice were subjected to a Y-maze test in which they had to learn the location of a food reward in one of two accessible choice arms. […] The home cages of the mice were equipped with a small sliding door that connected to the starting arm. One of the two test arms was baited with a food reward consisting of small crumbs of the regular food. Food crumbs were also placed below perforations at the end of the two test arms to prevent animals from discriminating between baited and non-baited arms by olfactory cues. […]
The Y-maze test took place during the first half of the light phase between 10:00 and 14:00 in a room adjacent to the home cage room. […] A visit to the baited arm was recorded as a correct trial. […]
as §2

[4] = test system: cholinergic system (nucleus basalis, hippocampus); assay: AChE histochemistry of cholinergic cells and fibres; assay type: in vivo, male C57BI/6 mice; settings: age 24 months, RES versus CON
Method: The experiment was performed with male C57BI/6 mice (Harlan, Horst, The Netherlands). Animals were individually housed under a 12 hours light/12 hours dark cycle with lights on at 8:00. Food and drinking water were provided ad libitum, except for the period of behavioural testing as described below. The experiment was started with 60 mice, half of which served as control (CON) and half of which received resveratrol in their food from the age of 1 year onwards (RES). Between the ages of 18 and 20 month, spatial learning performance of the animals was studied in a Y-maze test. […]
For histology, brain tissue was cryoprotected in 30% sucrose in 0.1 M phosphate buffer for 48 h after which 20 μm sections were cut with a cryostat (Leica CM3050). […] Cells positive for AChE were quantified in sections containing nucleus basalis (around bregma −0.7) and AChE fibre density measurements were performed by a computerized image analysis system Quantimet (Leica) in the dorsal hippocampus.
as §2

hippocampal microvessels = assay: Electron microscopy of the cerebrovascular system; assay type: in vivo, male C57BI/6 mice; settings: age 24 months
Method: as §1
At the age of 24 months animals were sacrificed for histochemical and electronmicroscopical analysis. Mice were anaesthetized by a high dose of pentobarbital sodium salt (Nembutal, 60 mg/kg bodyweight) and transcardially perfused with heparinised saline followed by 4% phosphate buffered paraformaldehyde. After perfusions, brains were removed from the skull and kept in 0.01 M PBS overnight. […]
After perfusion, 18 brains were prepared for electron microscopy using standard methods. […] The samples were then coverslipped with DPX and analyzed under a light microscope. […] Finally, the samples were analyzed and photographs were taken with a Philips TM10 transmission electron microscope.
For quantitative analysis, approximately 4000 μm^2 tissue surface was scanned systematically in each region, and 61±10 microvascular cross sections were examined in each sample. Vascular density was calculated for a standard surface area with the help of the sample grid. In addition to microvessel density, the occurrence of the following features were quantitated: luminal endothelial protrusions, large empty endothelial vacuoles and basement membrane thickening. […] The number of microvessels displaying any of the noted abnormalities was counted and expressed as percentage of the total number of microvessels examined. Capillaries and arterioles were analyzed separately. Since arterioles were encountered at high enough number for statistical analysis only in the hippocampal vascular layer, quantitative analysis of arteriolar condition was performed for this region of the hippocampus alone.
as §2

[5] = hippocampal microvessels, versus control

SMILES: Oc1ccc(C=Cc2cc(O)cc(O)c2)cc1 [Resveratrol, 3,5,4′-trihydroxystilbene]
- food intake, growth and body weight ([1]; mouse, in vivo): did not affect food intake, growth and body weight
- general health (regular visual inspection) ([1]; mouse, in vivo): did not indicate obvious differences in general health
- mortality rate ([1]; resveratrol in food from 1 year to 24 months of age, RES versus CON): no significant differences in mortality rate
- more time spent in the centre of the arena than control animals (aged mice [2]; 5 minutes open field test, p=0.003): about 50%
- locomotion (total distance covered) in open field (aged mice [2]; 5 minutes test, RES versus CON): the same amount of locomotion
- Y-maze final level of performance on day 3 and retention trial on day 10 (aged mice [3]; RES versus CON): not different
- Y-maze performance on the second day of the training phase (aged mice [3]; posthoc test, RES versus CON, p<0.05): performed better then CON animals
- Y-maze learning (number of correct choices on day 1 to 3) (aged mice [3]; training phase, age 18-20 months, repeated measures ANOVA p=0.016): improved learning
- cholinergic cell number in the nucleus basalis [4]: did not reveal any difference
- cholinergic fibre density in the CA1 and dentate gyrus of the hippocampus [4]: unchanged
- vascular density in the hippocampus, higher than in control animals (hippocampal microvessels; chronic supplementation, p=0.019): about 15%
- number of microvessels with endothelial vacuoles (hippocampal microvessels; hippocampal arterioles, versus control, p=0.05): significantly reduced
- occurrence of basement membrane thickening (hippocampal microvessels; [5]): not significantly affected
- occurrence of endothelial processes (hippocampal microvessels; [5]): not significantly affected
